How the values were obtained:
histamine [1] = details: metabolite of triprolidine in man; known from prior art; cited from earlier work
histamine [2] = test: In vitro antihistaminic activity: shift of histamine concentration-response curves in isolated guinea-pig ileum longitudinal muscle (Schild plot); format: biochemical, guinea-pigs; details: negative log of molar antagonist concentration shifting the control histamine concentration-response curve 2X to the right; tissue incubated one hour with test compound; 60 min
Method: A.Invitro antihistaminic activity: The longitudinal muscle was isolated from the intact ileum of guinea-pigs (Harley, male 250-400 g) and placed in an organ bath under 300 mg tension. After one hour of equilibration, cumulative concentration-response curves (Van Rossum, J.M., Arch. Int. Pharmacodyn. Ther. 143 299-330,1963) to histamine were obtained. Following washing, the tissues were incubated for one hour with the test compound and then a second histamine concentration-response curve was run. Shifts to the right of the agonist concentration-response curve produced by the antagonists were used to construct Schild plots (Arunlakshana, O. and Schild, H.O., Br. J. Pharmacol: 14, 48-58, 1959). Regression of Log (dr-1) on Log/B/, where dr is an equiactive response in the presence and absence of antagonist and /B/ is the molar concentration of antagonist, allowed an estimate of pA2, i.e. the negative log of the. concentration of antagonist which shifts the control histamine concentration-response curve 2X to the right.
The antihistaminic activities of compounds of the present invention are detailed in table A below.

| SMILES | antihistamine activity (histamine [1]) | pA2 (histamine [2]) |
| --- | --- | --- |
| O=C(O)c1ccc(/C(=C\CN2CCCC2)c2ccccn2)cc1 [(E)-1-(4-carboxyphenyl)-1-(2-pyridyl)-3-pyrrolidinoprop-1-ene] | little or no antihistamine activity | – |
| Cc1ccc(/C(=C\CN2CCCC2)c2cccc(/C=C/c3nnn[nH]3)n2)cc1 [Example 1, 5-(E-6-[3-pyrrolidino-1-(4-tolyl)prop-1E-enyl]-2-pyridylvinyl)-1H-tetrazole] | – | 8.7 |
| O=S(=O)(O)c1cccc(/C(=C/CN2CCCC2)c2ccccc2)c1 [Example 2, (E)-3-(1-phenyl-3-pyrrolidinoprop-1-enyl)-benzenesulphonic Acid] | – | 7.1 |
| O=S(=O)(O)c1cccc(C(CCN2CCCC2)c2ccccc2)c1 (stereo not shown) [Example 3, 3-(1-phenyl-3-pyrrolidinopropyl) benzenesulphonic acid] | – | 7.3 |

From patent EP0133534A2, “Pyridyl compounds” (THE WELLCOME FOUNDATION LIMITED, priority 1983, dated 1985)
